Experimental data reported in US7468384B2, “Microbicidal composition” (Rohm and Haas Company, priority 2004, dated 2008).
Where two headings read alike, the source gives them in different places.

Tests used:
Format in all cases: cell-based
[1] = tested on: Escherichia coli (E. coli—ATCC #8739); test: Synergy test, microtiter plate high resolution MIC assay, bacterium; details: Escherichia coli, ATCC8739, 24 h, read-out: MIC of component acting alone (QA / QB)
Method in brief: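 High-resolution MICs were found by adding microbicide to one microtitre column and making ten-fold dilutions with an automated liquid handler, giving endpoints from 2 ppm to 10,000 ppm active ingredient. The MIC is the lowest concentration that prevents growth. E. coli 8739, at roughly 5×10^6 cells per mL, grew in glucose/yeast-extract-supplemented minimal salt medium (M9GY). Values above one indicate antagonism.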

[2] = tested on: Aspergillus niger (A. niger—ATCC 16404); test: Synergy test, microtiter plate high resolution MIC assay, mold; details: for MIC: Aspergillus niger; for SI (calculated synergy index): A. niger 16404, PDB
Method in brief: (§1)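 Values derive from Kull synergy index (Qa/QA + Qb/QB, ppm MIC endpoints, alone vs in mixture). Endpoints from high-resolution microtiter MICs spanning 2–10,000 ppm; bacterium ~5×10^6/mL in TSB or M9GY, yeast and mold 5×10^5/mL in PDB.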

[3] = tested on: Pseudomonas aeruginosa (P. aeruginosa—ATCC #15442); test: Synergy test, microtiter plate high resolution MIC assay, bacterium; details: for MIC: Pseudomonas aeruginosa
Method in brief: as §1

[4] = tested on: Candida albicans (C. albicans—ATCC 10231); test: Synergy test, microtiter plate high resolution MIC assay, yeast; details: for MIC: Candida albicans
Method in brief: as §1

Cn1sccc1=O [2-methyl-3-isothiazolone, 2-methyl-4-isothiazolin-3-one]
MIC [1]: 30 µg/mL | MIC ([2]; ATCC16404, 96 h, read-out: MIC of component acting alone (QA / QB)): 400 µg/mL | MIC ([2]; ATCC16404, 96 h, read-out: Qa: end-point activity (MIC) of MI in the mixture (MI alone, QA, where Qb = 0)): 400 µg/mL | MIC ([2]; ATCC16404, 168 h, read-out: MIC of component acting alone (QA / QB)): 500 µg/mL | MIC ([2]; ATCC16404, 168 h, read-out: Qa: end-point activity (MIC) of MI in the mixture (MI alone, QA, where Qb = 0)): 400 µg/mL | SI (calculated synergy index) ([2]; Table 5, 7 days): 1.00 | SI (calculated synergy index) ([2]; Table 6, 4 days): 1.00 | MIC of component acting alone (QA / QB) ([3]; P. aeruginosa 15442, M9GY, 48 hours): 30 ppm | MIC ([3]; ATCC15442, 24 h, read-out: MIC of component acting alone (QA / QB), P. aeruginosa 15442, TSB, 24 hours): 50 µg/mL | MIC ([3]; ATCC15442, 48 h, read-out: MIC of component acting alone (QA / QB), P. aeruginosa 15442, M9GY, 48 hours): 20 µg/mL | MIC ([3]; ATCC15442, 48 h, read-out: MIC of component acting alone (QA / QB), P. aeruginosa 15442, TSB, 48 hours): 60 µg/mL | MIC ([3]; ATCC15442, 48 h, read-out: Qa: end-point activity (MIC) of MI in the mixture (MI alone, QA, where Qb = 0), Table 5, P. aeruginosa 15442, M9GY, 48 hours, B = Linoleamidopropyl PG-dimonium chloride phosphate): 30 µg/mL | MIC ([3]; ATCC15442, 48 h, read-out: Qa: end-point activity (MIC) of MI in the mixture (MI alone, QA, where Qb = 0), Table 5, P. aeruginosa 15442, TSB, 48 hours, B = Linoleamidopropyl PG-dimonium chloride phosphate): 80 µg/mL | MIC ([3]; ATCC15442, 48 h, read-out: Qa: end-point activity (MIC) of MI in the mixture (MI alone, QA, where Qb = 0), Table 6, P. aeruginosa 15442, TSB, 48 hours, B = Cocamidopropyl PG-dimonium chloride phosphate): 80 µg/mL | MIC ([3]; ATCC15442, 72 h, read-out: MIC of component acting alone (QA / QB), P. aeruginosa 15442, TSB, 72 hours): 70 µg/mL | MIC ([3]; ATCC15442, 72 h, read-out: Qa: end-point activity (MIC) of MI in the mixture (MI alone, QA, where Qb = 0), Table 6, P. aeruginosa 15442, M9GY, 72 hours, B = Cocamidopropyl PG-dimonium chloride phosphate): 30 µg/mL | SI (calculated synergy index) ([3]; Table 5, P. aeruginosa 15442, M9GY, 48 hours): 1.00 | SI (calculated synergy index) ([3]; Table 5, P. aeruginosa 15442, TSB, 48 hours): 1.00 | SI (calculated synergy index) ([3]; Table 6, P. aeruginosa 15442, M9GY, 72 hours): 1.00 | SI (calculated synergy index) ([3]; Table 6, P. aeruginosa 15442, TSB, 48 hours): 1.00 | MIC ([4]; ATCC10231, 24 h, read-out: MIC of component acting alone (QA / QB)): 200 µg/mL | MIC ([4]; ATCC10231, 24 h, read-out: Qa: end-point activity (MIC) of MI in the mixture (MI alone, QA, where Qb = 0)): 125 µg/mL | MIC ([4]; ATCC10231, 48 h, read-out: MIC of component acting alone (QA / QB)): 200 µg/mL | MIC ([4]; ATCC10231, 72 h, read-out: MIC of component acting alone (QA / QB)): 200 µg/mL | SI (calculated synergy index) ([4]; Table 5, C. albicans 10231, PDB, 24 hours): 1.00 | SI (calculated synergy index) ([4]; Table 6, C. albicans 10231, PDB, 24 hours): 1.00 | Qa: end-point activity (MIC) of MI in the mixture (MI alone, QA, where Qb = 0) ([4]; Table 6, C. albicans 10231, PDB, 24 hours, B = Cocamidopropyl PG-dimonium chloride phosphate): 125 ppm
